Data published in patent US8354414B2, “Substituted bicyclic pyrimidines” (Cephalon, Inc, priority 2006, dated 2013).
pIC50: −log10 of the molar value. Structures can show the parent of a compound that is named as a salt.

Experiments:
His6-GSK-3β = target: T1, His6-GSK-3β (Homo sapiens, UniProt P49841); experiment: Inhibition of His6-GSK-3β kinase activity (ELISA-based format, time-resolved fluorescence readout); type: biochemical; settings: class symbols; read-out: GSK3β IC50
T1 construct: made in house; host or cells: Sf21 insect cells (baculovirus)
T1 sequence (P49841 2-419): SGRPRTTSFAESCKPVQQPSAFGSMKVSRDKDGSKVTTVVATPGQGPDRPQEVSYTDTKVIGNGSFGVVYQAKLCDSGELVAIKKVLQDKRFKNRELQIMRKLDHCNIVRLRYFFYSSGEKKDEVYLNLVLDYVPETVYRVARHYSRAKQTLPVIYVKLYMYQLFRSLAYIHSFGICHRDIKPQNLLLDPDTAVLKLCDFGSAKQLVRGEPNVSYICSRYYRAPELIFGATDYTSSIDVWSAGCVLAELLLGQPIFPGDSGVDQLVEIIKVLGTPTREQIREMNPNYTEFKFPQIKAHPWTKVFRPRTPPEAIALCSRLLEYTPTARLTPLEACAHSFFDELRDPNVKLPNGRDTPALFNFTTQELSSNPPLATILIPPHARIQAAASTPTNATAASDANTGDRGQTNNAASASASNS
In short: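 Plate-bound recombinant GST-Rb substrate was phosphorylated for 30 min at 37° C by baculovirus-expressed His6-GSK-3β (200 ng/ml) at 20 μM ATP, 10 mM MgCl2, 2.5% DMSO. Europium time-resolved fluorescence of anti-phospho-Ser780 Rb signal gave inhibition, fitted to IC50.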

CDK5/GST-p25 = target: T2, CDK5/GST-p25 (Homo sapiens, UniProt Q00535); experiment: Inhibition of CDK5/GST-p25 kinase activity (ELISA with time-resolved fluorescence readout); type: biochemical
T2 construct: The final construct, encoding for full-length human CDK5; made in house; host or cells: Sf21 insect cells (baculovirus co-infection)
T2 sequence (Q00535 whole entry): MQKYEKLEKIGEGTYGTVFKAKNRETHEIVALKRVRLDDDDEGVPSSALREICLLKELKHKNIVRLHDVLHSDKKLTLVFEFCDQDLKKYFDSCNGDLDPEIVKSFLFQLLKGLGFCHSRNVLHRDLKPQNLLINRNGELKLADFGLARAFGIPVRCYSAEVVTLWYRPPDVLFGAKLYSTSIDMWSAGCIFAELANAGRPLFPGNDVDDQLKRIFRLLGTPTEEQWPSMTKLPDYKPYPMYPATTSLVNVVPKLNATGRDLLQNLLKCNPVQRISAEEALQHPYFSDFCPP
T2 sequence (Q15078 108-307 partner limits assumed): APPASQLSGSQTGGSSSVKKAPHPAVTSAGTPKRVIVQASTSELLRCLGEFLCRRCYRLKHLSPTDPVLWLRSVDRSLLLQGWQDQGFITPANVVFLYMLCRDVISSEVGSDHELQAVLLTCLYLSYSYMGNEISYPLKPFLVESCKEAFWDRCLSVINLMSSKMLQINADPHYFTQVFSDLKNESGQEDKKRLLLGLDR
In short: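 The substrate, GST-Rb(773-928), was immobilised on plates and phosphorylated for 20 min at 37 °C by 2 ng/ml CDK5/GST-p25 in HEPES pH 7.2 with 10 µM ATP and 10 mM MgCl2. Both proteins were human and co-expressed in insect cells. Ser-780 phosphorylation was read by europium time-resolved fluorescence and converted to IC50.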

| SMILES | melting point | pIC50 (His6-GSK-3β) | pIC50 (CDK5/GST-p25; class symbols) | pIC50 (CDK5/GST-p25; numeric bounds) |
| --- | --- | --- | --- | --- |
| CCCCCn1cc2c(C3C(=O)Nc4ccc(C(F)(F)F)cc43)nc(Cl)nc2n1 (stereo not shown) | 267 °C (dec.) | – | – | – |
| CN(C)CCNc1nc(C2C(=O)Nc3ccc(Br)cc32)c2cn(C3CCCC3)nc2n1 (stereo not shown) (as salt: TFA) [Example 370, 5-Bromo-3-[2-cyclopentyl-6-(2-dimethylamino-ethylamino)-2H-pyrazolo [3,4-d]pyrimidin-4-yl]-1,3-dihydro-indol-2-one] | 190 to 192 °C | – | – | – |
| CCCn1cc2c(C3C(=O)Nc4ccc(Br)cc43)nc(NCCCNC)nc2n1 (stereo not shown) (as salt: hydrochloride) [Example 201, 5-Bromo-3-[6-(3-methylamino-propylamino)-2-propyl-2H-pyrazolo [3,4-d]pyrimidin-4-yl]-1,3-dihydro-indol-2-one hydrochloride] | 271 to 273 °C | – | – | – |
| CCOCCn1cc2c(C3C(=O)Nc4ccc(Cl)cc43)nc(NCCCNC)nc2n1 (stereo not shown) (as salt: hydrochloride) [Example 215, 5-Chloro-3-[2-(2-ethoxy-ethyl)-6-(3-methylamino-propylamino)-2H-pyrazolo [3,4-d]pyrimidin-4-yl]-1,3-dihydro-indol-2-one] | 275 to 277 °C | – | – | – |
| CNCCCNc1nc(C2C(=O)Nc3ccc(Br)cc32)c2cn(CCOC)nc2n1 (stereo not shown) (as salt: hydrochloride) [Example 226, 5-Bromo-3-[2-(2-methoxy-ethyl)-6-(3-methylamino-propylamino)-2H-pyrazolo[3,4-d]pyrimdin-4-yl]-1,3-dihydro-indol-2-one] | 232 to 236 °C | – | – | – |
| COCCn1cc2c(C3C(=O)Nc4ccc(Br)cc43)nc(NCCC3CCNCC3)nc2n1 (stereo not shown) (as salt: hydrochloride) [Example 227, 5-Bromo-3-[2-(2-methoxy-ethyl)-6-(2-piperidin-4-yl-ethylamino)-2H-pyrazolo[3,4-d]pyrimidin-4-yl]-1,3-dihydro-indol-2-one] | 248 to 251 °C | – | – | – |
| COCCn1cc2c(C3C(=O)Nc4ccc(Br)cc43)nc(NCCC3CCCNC3)nc2n1 (stereo not shown) (as salt: hydrochloride) [Example 228, 5-Bromo-3-[2-(2-methoxy-ethyl)-6-(2-piperidin-3-yl-ethylamino)-2H-pyrazolo[3,4-d]pyrimidin-4-yl]-1,3-dihydro-indol-2-one] | 270 to 273 °C | – | – | – |
| CNCCCNc1nc(C2C(=O)Nc3ccc(C(F)(F)F)cc32)c2cn(C3CCCC3)nc2n1 (stereo not shown) (as salt: hydrochloride) [Example 253, 3-[2-Cyclopentyl-6-(3-methylamino-propylamino)-2H-pyrazolo [3,4-d]pyrimidin-4-yl]-5-trifluoromethyl-1,3-dihydro-indol-2-one hydrochloride salt] | 260 to 262 °C | – | – | – |
| CNCCCNc1nc(C2C(=O)Nc3ccc(Br)cc32)c2cn(C)nc2n1 (stereo not shown) (as salt: hydrochloride) [Example 306, 5-Bromo-3-[2-methyl-6-(3-methylamino-propylamino)-2H-pyrazolo [3,4-d]pyrimidin-4-yl]-1,3-dihydro-indol-2-one] | 271 to 273 °C | – | – | – |
| COC[C@H]1C[C@@H](n2cnc3c(C4C(=O)Nc5ccc(C#N)cc54)ncnc32)[C@H](O)[C@@H]1O (stereo partly drawn) [Example 29, 3-[9-((1R,2S,3R,4R)-2,3-Dihydroxy-4-methoxymethyl-cyclopentyl)-9H-purin-6-yl]-2-oxo-2,3-dihydro-1H-indole-5-carbonitrile] | 230 to 236 °C (dec.) | – | – | – |
| CCCn1cc2c(C3C(=O)Nc4ccc(C#N)cc43)nc(Cl)nc2n1 (stereo not shown) [Example 183, 3-(6-Chloro-2-propyl-2H-pyrazolo [3,4-d]pyrimidin-4-yl)-2-oxo-2,3-dihydro-1H-indole-5-carbonitrile] | > 300 °C | – | – | – |
| N#Cc1ccc2c(c1)C(c1nc(NCc3cccnc3)nc3c1CCC3)C(=O)N2 (stereo not shown) [Example 348, 2-Oxo-3-{2-[(pyridin-3-ylmethyl)-amino]-6,7-dihydro-5H-cyclopentapyrimidin-4-yl}-2,3-dihydro-1H-indole-5-carbonitrile] | – | 5.52 to 6.52 | > 6.52 | – |
| N#Cc1ccc2c(c1)C(c1nc(NCc3ccccn3)nc3c1CCC3)C(=O)N2 (stereo not shown) [Example 349, 2-Oxo-3-{2-[(pyridin-2-ylmethyl)-amino]-6,7-dihydro-5H-cyclopentapyrimidin-4-yl}-2,3-dihydro-1H-indole-5-carbonitrile] | – | 5.52 to 6.52 | > 6.52 | – |
| N#Cc1ccc2c(c1)C(c1nc(Nc3cccnc3)nc3c1CCC3)C(=O)N2 (stereo not shown) [Example 350, 2-Oxo-3-[2-(pyridin-3-ylamino)-6,7-dihydro-5H-cyclopentapyrimidin-4-yl]-2,3-dihydro-1H-indole-5-carbonitrile] | – | 5.52 to 6.52 | – | < 5.52 |
| N#Cc1ccc2c(c1)C(c1nc(Nc3ccc(F)nc3)nc3c1CCC3)C(=O)N2 (stereo not shown) [Example 351, 3-[2-(6-Fluoro-pyridin-3-ylamino)-6,7-dihydro-5H-cyclopentapyrimidin-4-yl]-2-oxo-2,3-dihydro-1H-indole-5-carbonitrile] | – | < 5.00 | < 5.00 | – |
| COc1ccc(Nc2nc3c(c(C4C(=O)Nc5ccc(C#N)cc54)n2)CCC3)cn1 (stereo not shown) [Example 352, 3-[2-(6-Methoxy-pyridin-3-ylamino)-6,7-dihydro-5H-cyclopentapyrimidin-4-yl]-2-oxo-2,3-dihydro-1H-indole-5-carbonitrile] | – | < 5.00 | < 5.00 | – |
| CN1CCN(c2nc3c(c(C4C(=O)Nc5ccc(C#N)cc54)n2)CCC3)CC1 (stereo not shown) [Example 353, 3-[2-(4-Methyl-piperazin-1-yl)-6,7-dihydro-5H-cyclopentapyrimidin-4-yl]-2-oxo-2,3-dihydro-1H-indole-5-carbonitrile] | – | 5.52 to 6.52 | < 5.00 | – |
| N#Cc1ccc2c(c1)C(c1nc(N3CCNCC3)nc3c1CCC3)C(=O)N2 (stereo not shown) [Example 354, 2-Oxo-3-(2-piperazin-1-yl-6,7-dihydro-5H-cyclopentapyrimidin-4-yl)-2,3-dihydro-1H-indole-5-carbonitrile] | – | 5.52 to 6.52 | > 6.52 | – |
| C[C@@H](O)CNc1nc(C2C(=O)Nc3ccc(Br)cc32)c2cn(C)nc2n1 (stereo partly drawn) [Example 358, 5-Bromo-3-[6-(2-(R)-hydroxy-propylamino)-2-methyl-2H-pyrazolo [3,4-d]pyrimidin-4-yl]-1,3-dihydroindol-2-one] | – | > 6.52 | > 6.52 | – |
| CN(C)CCNc1nc(C2C(=O)Nc3ccc(Br)cc32)c2cn(C)nc2n1 (stereo not shown) [Example 359, 5-Bromo-3-[6-(2-dimethylamino-ethylamino)-2-methyl-2H-pyrazolo[3,4-d]pyrimidin-4-yl]-1,3-dihydro-indol-2-one] | – | 5.52 to 6.52 | 5.52 to 6.52 | – |
| CNCCNc1nc(C2C(=O)Nc3ccc(Br)cc32)c2cn(C)nc2n1 (stereo not shown) [Example 360, 5-Bromo-3-[2-methyl-6-(2-methylamino-ethylamino)-2H-pyrazolo[3,4-d]pyrimidin-4-yl]-1,3-dihydro-indol-2-one hydrochloride salt] | – | 5.52 to 6.52 | 5.52 to 6.52 | – |
| CCCn1cc2c(C3C(=O)Nc4ccc(Br)cc43)nc(NC[C@@H]3CCCN3)nc2n1 (stereo partly drawn) [Example 361, 5-Bromo-3-{2-propyl-6-[((S)-1-pyrrolidin-2-ylmethyl)-amino]-2H-pyrazolo[3,4-d]pyrimidin-4-yl}-1,3-dihydro-indol-2-one] | – | > 6.52 | – | < 5.52 |
| CCCn1cc2c(C3C(=O)Nc4ccc(Br)cc43)nc(N[C@H]3CCNC3)nc2n1 (stereo partly shown) [Example 362] | – | 5.52 to 6.52 | – | < 5.52 |
| CCCn1cc2c(C3C(=O)Nc4ccc(Br)cc43)nc(N[C@@H]3CCNC3)nc2n1 (stereo partly shown) [Example 363] | – | 5.52 to 6.52 | 5.52 to 6.52 | – |
| CCCn1cc2c(C3C(=O)Nc4ccc(Br)cc43)nc(NC[C@H](O)CO)nc2n1 (stereo partly drawn) [Example 364, 5-Bromo-3-[6-((S)-2,3-dihydroxy-propylamino)-2-propyl-2H-pyrazolo [3,4-d]pyrimidin-4-yl]-1,3-dihydro-indol-2-one] | – | > 6.52 | > 6.52 | – |
| CCCn1cc2c(C3C(=O)Nc4ccc(Br)cc43)nc(NCCNC)nc2n1 (stereo not shown) [Example 365, 5-Bromo-3-[6-(2-methylamino-ethylamino)-2-propyl-2H-pyrazolo [3,4-d]pyrimidin-4-yl]-1,3-dihydro-indol-2-one hydrochloride salt] | – | > 6.52 | 5.52 to 6.52 | – |
| CCCn1cc2c(C3C(=O)Nc4ccc(Br)cc43)nc(NC[C@H]3CCCO3)nc2n1 (stereo partly drawn) [Example 366, 5-Bromo-3-(2-propyl-6-{[(R)-1-(tetrahydro-furan-2-yl)methyl]-amino}-2H-pyrazolo[3,4-d]pyrimidin-4-yl)-1,3-dihydro-indol-2-one] | – | > 6.52 | > 6.52 | – |
| CCCn1cc2c(C3C(=O)Nc4ccc(Br)cc43)nc(NC[C@@H]3CCCO3)nc2n1 (stereo partly drawn) [Example 367, 5-Bromo-3-(2-propyl-6-{[(S)-1-(tetrahydro-furan-2-yl)methyl]-amino}-2H-pyrazolo [3,4-d]pyrimidin-4-yl)-1,3-dihydro-indol-2-one] | – | > 6.52 | > 6.52 | – |
| CCCn1cc2c(C3C(=O)Nc4ccc(Br)cc43)nc(NC[C@@H](O)CO)nc2n1 (stereo partly drawn) [Example 368, 5-Bromo-3-[6-((R)-2,3-dihydroxy-propylamino)-2-propyl-2H-pyrazolo[3,4-d]pyrimidin-4-yl]-1,3-dihydro-indol-2-one] | – | > 6.52 | > 6.52 | – |
| CN(C)CCNc1nc(C2C(=O)Nc3ccc(Br)cc32)c2cn(C3CCCC3)nc2n1 (stereo not shown) [Example 370, 5-Bromo-3-[2-cyclopentyl-6-(2-dimethylamino-ethylamino)-2H-pyrazolo [3,4-d]pyrimidin-4-yl]-1,3-dihydro-indol-2-one] | – | > 6.52 | – | < 5.52 |
